Experimental data published in patent US20080261977A1, “Pyrimidine Derivatives as Cannabinoid Receptor Modulators” (priority 2004, published 2008).
Counter-ions that a name gives are not always drawn. Like-named read-outs stand apart in the source and are kept apart here.

Target: T1, human cannabinoid CB2 receptor (Homo sapiens, UniProt P34972)
T1 construct: expressed in transfected cells; host or cells: Saccharomyces cerevisiae strain MMY23 (cassette integrated at the ura3 locus; chimeric Gpa1/Gαi3)
T1 sequence (P34972 whole entry): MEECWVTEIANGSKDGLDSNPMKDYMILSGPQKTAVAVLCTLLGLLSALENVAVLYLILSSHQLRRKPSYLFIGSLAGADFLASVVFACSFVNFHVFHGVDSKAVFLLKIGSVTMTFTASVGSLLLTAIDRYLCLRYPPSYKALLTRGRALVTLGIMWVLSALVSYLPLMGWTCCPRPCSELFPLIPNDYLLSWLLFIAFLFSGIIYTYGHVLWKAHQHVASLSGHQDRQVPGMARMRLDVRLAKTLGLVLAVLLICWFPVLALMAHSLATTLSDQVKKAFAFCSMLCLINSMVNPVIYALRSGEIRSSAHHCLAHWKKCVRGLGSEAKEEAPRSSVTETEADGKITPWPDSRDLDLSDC
Assay: Cannabinoid CB2 receptor agonist activity, yeast (Saccharomyces cerevisiae) cells expressing the receptor, FDGlu fluorescence
Format: cell-based
Settings: for Emax: read-out: efficacy (Emax relative to HU210) at the cloned human cannabinoid CB2 receptor
Method in brief: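 S. cerevisiae MMY23 expressing human CB2 with a Gpa1/Gαi3 chimeric G-protein were incubated 24 h at 30° C with agonist in selective medium containing 3-aminotriazole and FDGlu, pH 7.0. Growth-linked fluorescein fluorescence (485/535 nm) gave EC50 by four-parameter fit; Emax and EMR expressed relative to HU210.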

[1] = yeast agonist assay, read-out: EC50 at the cloned human cannabinoid CB2 receptor

Row | Emax (yeast agonist assay) [%] | Compound | EC50 [1] [nM] | EC50 [nM] | Emax [%]
1 | > 50 | Clc1cccc(Nc2ncc(CNC3CCC3)c(C3CC3)n2)c1 [Example 1, (3-Chloro-phenyl)-(5-cyclobutylaminomethyl-4-cyclopropyl-pyrimidin-2-yl)-amine] | < 300 | – | –
2 | > 50 | CC(NCC1CCCC1)c1cnc(Nc2cccc(Cl)c2)nc1C(F)(F)F (stereo not shown) [Example 90, (3-Chlorophenyl)-{5-[1-(cyclopentylmethyl-amino)-ethyl]-4-trifluoromethyl-pyrimidin-2-yl}-amine, formate] | < 300 | – | –
3 | – | CC(NCC1CCCCC1)c1cnc(Nc2ccc(Cl)cc2Cl)nc1C(F)(F)F (stereo not shown) [Example 95, (2,4-Dichlorophenyl)-{5-[1-(cyclohexyhnethyl-amino)-ethyl]-4-trifluoromethyl-pyrimidin-2-yl}-amine] | – | < 300 | > 50
4 | > 50 | Fc1cccc(Nc2ncc(CNC3CC3)c(C(F)(F)F)n2)c1 [Example 38, (3-Fluorophenyl)-(5-cyclopropylaminomethyl-4-trifluoromethyl-pyrimidin-2-yl)-amine] | < 300 | – | –
5 | – | CN(Cc1cnc(Nc2cccc(Cl)c2)nc1C(F)(F)F)CC1CCOCC1 [Example 42, (3-Chlorophenyl)-(5-{[methyl-(tetrahydro-pyran-4-ylmethyl)-amino]-methyl}-4-trifluoromethyl-pyrimidin-2-yl)-amine] | 300 to 1000 | – | > 50
6 | – | FC(F)(F)c1nc(Nc2cccc(Cl)c2)ncc1CN1CCCC1 [Example 40, (3-Chlorophenyl)-(5-pyrrolidin-1-ylmethyl-4-trifluoromethyl-pyrimidin-2-yl)-amine, formate] | 300 to 1000 | – | > 50
7 | – | CC(C)(C)CNCc1cnc(Nc2ccc(Cl)cc2Cl)nc1C(F)(F)F [Example 32, (2,4-Dichlorophenyl)-{5-[(2,2-dimethylpropylamino)-methyl]-4-trifluoromethyl-pyrimidin-2-yl}-amine] | – | < 300 | > 50
8 | – | CCC(C)NCc1cnc(Nc2cccc(Cl)c2)nc1C(F)(F)F (stereo not shown) [Example 48, [5-(sec-Butylamino-methyl)-4-trifluoromethyl-pyrimidin-2-yl]-(3-chloro-phenyl)-amine, formate] | 300 to 1000 | – | > 50
9 | – | FC(F)(F)c1nc(Nc2cccc(Cl)c2)ncc1CNC[C@H]1CCCO1 [Example 49, (3-Chlorophenyl)-(5-{[[(2R)-tetrahydro-furan-2-ylmethyl]-amino]-methyl}-4-trifluoromethyl-pyrimidin-2-yl)-amine,formate] | 300 to 1000 | – | > 50
10 | – | O=S1(=O)CCC(NCc2cnc(Nc3cccc(Cl)c3)nc2C(F)(F)F)CC1 [Example 26, (3-Chlorophenyl)-{5-[(1,1-dioxo-hexahydro-1l^6-thiopyran-4-ylamino)-methyl]-4-trifluoromethyl-pyrimidin-2-yl}-amine, formate] | < 300 | – | > 50
11 | > 50 | Clc1cccc(Nc2ncc(CNCC3CC3)c(C3CC3)n2)c1 [Example 3, (3-Chloro-phenyl)-{4-cyclopropyl-5-[(cyclopropylmethyl-amino)-methyl]-pyrimidin-2-yl}-amineacetate] | < 300 | – | –
12 | > 50 | CC(C)c1nc(Nc2cccc(Cl)c2)ncc1CNCC1CCCC1 [Example 8, (3-Chloro-phenyl)-{5-[(cyclopentylmethyl-amino)-methyl]-4-isopropyl-pyrimidin-2-yl}-amine hydrochloride] | < 300 | – | –
13 | – | CC(C)CNCc1cnc(Nc2cccc(C#N)c2)nc1C(F)(F)F [Example 59, (3-Cyanophenyl)-{5-[(isobutylamino)-methyl]-4-trifluoromethyl-pyrimidin-2yl}-amine, formate] | 300 to 1000 | – | > 50
14 | – | CCCCN(C)Cc1cnc(Nc2cccc(Cl)c2)nc1C(F)(F)F [Example 47, {5-[(Butyl-methyl-amino)-methyl]-4-trifluoromethyl-pyrimidin-2-yl}-(3-chlorophenyl)-amine] | 300 to 1000 | – | > 50
